Test results: patent publication US20180355326A1, “CYTOCHROME P450 AND CYTOCHROME P450 REDUCTASE POLYPEPTIDES, ENCODING NUCLEIC ACID MOLECULES AND USES THEREOF” (UNIVERSITY OF BRITISH COLUMBIA, priority 2012, published 2018)
Each block holds one molecule with its values, some of them ahead of it.

Columns and labels:
[1] = tested on: SaCYP76F38v1 (SaCYP76-G5); experiment: Oxidation of various mono- and sesquiterpene substrates by yeast microsomes containing SaCYP76F38v1; format: biochemical, Santalum album; details: 60 to 80 μM of the terpene substrate, 30° C., 1 hour, GC-MS, compared to vector control
Experimental: The reaction mixtures contained 50 mM potassium phosphate, 0.8 mM NADPH and 60 to 80 μM of the terpene substrate in a total volume of 350 μL. Enzyme reactions were started by adding 50 μL of the microsome preparation, incubated at 30° C. for 1 hour with shaking and stopped by extraction with 500 μL of hexane/ethyl acetate (85:15). The organic layer was concentrated under a gentle stream of N2 gas to about 100 μL and analyzed by GC-MS analysis as described in Example 6. […] The reaction products were identified based on matches of the MS fragmentation patterns with entries in the NIST and Wiley libraries (Wiley Registry® 9th Edition/NIST 2011; Fred W. McLafferty, John Wiley & Sons, Inc.).

[2] = target: T1, SaCYP76F39v1 (SaCYP76-G10) (Santalum album, UniProt V5RH69); experiment: Oxidation of various mono- and sesquiterpene substrates in vitro by SaCYP76F39v1; details: product formation the same as that catalyzed by CYP76-G5
Experimental: The reaction mixtures contained 50 mM potassium phosphate, 0.8 mM NADPH and 60 to 80 μM of the terpene substrate in a total volume of 350 μL. Enzyme reactions were started by adding 50 μL of the microsome preparation, incubated at 30° C. for 1 hour with shaking and stopped by extraction with 500 μL of hexane/ethyl acetate (85:15). […] The reaction products were identified based on matches of the MS fragmentation patterns with entries in the NIST and Wiley libraries (Wiley Registry® 9th Edition/NIST 2011; Fred W. McLafferty, John Wiley & Sons, Inc.).

[3] = target: T1, SaCYP76F39v1 (SaCYP76-G10); experiment: In vitro assay 2, microsomes containing SaCYP76F39v1 with a mixture of santalenes and bergamotene; format: biochemical; details: substrate mixture of santalenes and bergamotene; no product in the absence of NADPH or with empty vector microsomes
Experimental: (§1) Assays were performed in 400 μL reaction volumes containing 50 mM potassium phosphate pH 7.5, 0.8 mM NADPH and 40 μM of substrate. Enzyme reactions were initiated by adding 50 μL of the microsomes preparation (prepared in Example 8), incubated at 30° C. for 2 hours with shaking and stopped by adding 500 μL hexane.
Microsomes containing SaCYP76F39v1 (SaCYP76-G10) were assayed for their activity using the assay described in Section B. above.

[4] = target: T1, SaCYP76F39v1 (SaCYP76-G10); experiment: Substrate specificity, yeast microsomes containing SaCYP76F39v1 with various sesquiterpenes; format: biochemical; details: 40 μM of substrate, 30° C., 2 hours; for activity at 40 µM: rate of product formation relative to product formation by SaCYP76F39v1 with β-santalene
Experimental: as §1
(§2) To test the range of substrates used by the clade I and clade II SaCYP76F enzymes, yeast microsomes containing SaCYP76F37v1 (SaCYP76-G11) and SaCYP76F39v1 (SaCYP76-G10) were assayed for their ability to convert various sesquiterpenes, including the substrates α-santalene and β-santalene and 7 additional sesquiterpenes which resemble santalenes in the acyclic isoprenyl side chain, including α-curcumene, zingiberine, β-bisabolene, β-sesquiphellandrene, α-bisabolol, trans-β-farnesene and trans-nerolidol. Each substrate was tested using the in vitro assay described in Example 11.B.1.b above.
(§3) The results are shown in Table 15 below, which sets forth the substrates, including their structures, and the relative activities which represent the rate of product formation relative to product formation by SaCYP76F39v1 (SaCYP76-G10) with β-santalene.

[5] = target: T2, SaCYP76F37v1 (SaCYP76-G11) (Santalum album, UniProt V5RGC8); experiment: Substrate specificity, yeast microsomes containing SaCYP76F37v1 with various sesquiterpenes; format: biochemical; details: 40 μM of substrate, 30° C., 2 hours; for activity at 40 µM: rate of product formation relative to product formation by SaCYP76F39v1 with β-santalene
Experimental: as §1, §2, §3

[6] = target: T1, SaCYP76F39v1 (SaCYP76-G10); experiment: Oxidation of individual sesquiterpenes by microsomes containing SaCYP76F39v1; format: biochemical; details: partially purified substrate fraction, GC-MS
Experimental: as §1
(§4) Microsome preparations containing candidate P450 were assayed for their capacity to oxidize individual sesquiterpenes. The sesquiterpenes were isolated as described in Example 9 above. Three fractions containing mainly α-santalene, α-trans-bergamotene, or epi-β-santalene and β-santalene were used as individual substrates in assays containing clade I P450 SaCYP76F39v1 (SaCYP76-G10) or clade II P450 SaCYP76F37v1 (SaCYP76-G11). The assays were performed as described in Section B.1.b. above and products were identified by comparison to authentic standards (see Table 12 and FIG. 20G).

[7] = target: T2, SaCYP76F37v1 (SaCYP76-G11); experiment: Oxidation of individual sesquiterpenes by microsomes containing SaCYP76F37v1; format: biochemical; details: partially purified substrate fraction, GC-MS
Experimental: as §1, §4

[8] = tested on: SaCYP76F38v1 (SaCYP76-G5); experiment: Coupled enzyme assay with SaSSy and FPP, microsomes containing SaCYP76F38v1; format: biochemical, Santalum album; details: in vitro reaction products of SaSSy and 70 μM FPP, 0.8 mM NADPH, 30° C., 1 hour
Experimental: Coupled enzyme assays with S. album santalene synthase (SaSSy) expressed in bacteria (Jones et al. (2011) J Biol Chem 286:17445-17454) were initiated with 50 μg of His6-tag purified SaSSy and 70 μM farnesyl pyrophosphate (FPP) in TPS buffer (25 mM HEPES pH 7.5, 5 mM MgCl2, 1 mM DTT) in a volume of 450 μL. The assays were incubated for 30 min at 30° C. followed by the addition of 50 μL of the microsome preparation containing a S. album cytochrome P450 and a cytochrome P450 reductase and 0.8 mM NADPH. The reaction was incubated for an additional 1 hour at 30° C. and was stopped by extraction with 500 μL hexane/ethyl acetate (85:15).

[9] = substrate: C=C1[C@@H]2CC[C@@H](C2)[C@@]1(C)CCC=C(C)C; experiment: Kinetic assay with α-santalene or β-santalene as the substrate, SaCYP76F37v1; format: biochemical, Santalum album; details: other: apparent Km, 35 pmol P450, substrate 12 to 138 μM, 0.8 mM NADPH, pH 7.5, 30° C., 20 minutes
Experimental: (§5) To test the kinetics of the clade I and clade II SaCYP76F enzymes, kinetic assays were performed with SaCYP76F37v1 (SaCYP76-G11) and SaCYP76F39v1 (SaCYP76-G10) with α-santalene or β-santalene as the substrate. Assays were performed in 400 μL reaction volumes containing 50 mM potassium phosphate pH 7.5, 0.8 mM NADPH and substrate concentrations of 12 to 138 μM of α-santalene or β-santalene. Enzyme reactions were initiated by adding either 17 pmol of SaCYP7639v1 or 35 pmol of SaCYP7637v1, incubated at 30° C. for 20 minutes with shaking and stopped by adding 500 μL hexane. […] Kinetic data were evaluated using tools described in Hernandez and Ruiz ((1998) Bioinformatics. 14:227-228).
(§6) The apparent Km values, kcat values and kcat/Km values for SaCYP76F39v1 (SaCYP76-G10) and SaCYP76F37v1 (SaCYP76-G11) with α-santalene and β-santalene are set forth in Table 14 below.

[10] = substrate: CC(C)=CCC[C@]1(C)C2C[C@@H]3[C@H](C2)C31C; experiment: as above; format: biochemical, Santalum album; details: other: apparent Km, 35 pmol P450, substrate 12 to 138 μM, 0.8 mM NADPH, pH 7.5, 30° C., 20 minutes
Experimental: as §5, §6

[11] = substrate: C=C1[C@@H]2CC[C@@H](C2)[C@@]1(C)CCC=C(C)C; experiment: Kinetic assay with α-santalene or β-santalene as the substrate, SaCYP76F39v1; format: biochemical, Santalum album; details: other: apparent Km, 17 pmol P450, substrate 12 to 138 μM, 0.8 mM NADPH, pH 7.5, 30° C., 20 minutes
Experimental: as §5, §6

[12] = substrate: CC(C)=CCC[C@]1(C)C2C[C@@H]3[C@H](C2)C31C; experiment: as above; format: biochemical, Santalum album; details: other: apparent Km, 17 pmol P450, substrate 12 to 138 μM, 0.8 mM NADPH, pH 7.5, 30° C., 20 minutes
Experimental: as §5, §6

Molecule: C=CC(C)(O)CCC=C(C)C (stereo not shown) [linalool]
Products of reaction with SaCYP76F38v1 [1]: two products
Hydroxylation by CYP76-G10 in vitro [2]: catalyzed the hydroxylation

Molecule: C=CC(C)(O)CCC=C(C)CCC=C(C)C (stereo not shown) [nerolidol]
Products of reaction with SaCYP76F38v1 [1]: two products

Molecule: C=CC(=C)CC/C=C(\C)CCC=C(C)C [trans-farnesene]
Use as a substrate by SaCYP76F39v1 (in words) [4]: did not use
activity at 40 µM [4]: 0%
activity at 40 µM [5]: 0%

Molecule: C=CC(C)(O)CC/C=C(\C)CCC=C(C)C (stereo not drawn) [trans-nerolidol]
Use as a substrate by SaCYP76F39v1 (in words) [4]: did not use
activity at 40 µM [4]: 0%
Use as a substrate by SaCYP76F37v1 (in words) [5]: selectively active
activity at 40 µM [5]: 11.3%

Molecule: CC(C)=CCCC(C)C1C=CC(C)=CC1 (stereo not shown) [zingiberene]
Use as a substrate by SaCYP76F39v1 (in words) [4]: did not use
activity at 40 µM [4]: 0%
activity at 40 µM [5]: 0%

Molecule: CC(C)=CCCC(C)c1ccc(C)cc1 (stereo not drawn) [α-curcumene]
Use as a substrate by SaCYP76F39v1 (in words) [4]: did not use
activity at 40 µM [4]: 0%
activity at 40 µM [5]: 0%

Molecule: C=C(CCC=C(C)C)C1CC=C(C)CC1 (stereo not drawn) [β-bisabolene]
Use as a substrate by SaCYP76F39v1 (in words) [4]: did not use
activity at 40 µM [4]: 0%
activity at 40 µM [5]: 0%

Molecule: C=C1C=CC(C(C)CCC=C(C)C)CC1 (stereo not drawn) [β-sesquiphellandrene]
Use as a substrate by SaCYP76F39v1 (in words) [4]: did not use
activity at 40 µM [4]: 0%
activity at 40 µM [5]: 0%

B1: SaCYP76F37v1 (SaCYP76-G11) (Santalum album) (protein)
chain: MDFLSCILSVLFAWALVRALPTLSRGSKAAGGRLPPGPVPLPVVGNLLKLGSKPHKSLAELAKSYGPIMCLKLGHIITIVISTPTVAKEVLQKQDVAFCNRTIPDAVRAHRHDLHSMVWLPVSTRWRTLRKISNSHIFSSQRLDENHHLRRRKLDELLTRVAESSLVGAVVDIGAVAFLTSLNLLSNTVFSKDLVEPGLGAVQEMEEVVWGITEEAGRPNLVDYFPVLRRLDPQGTRRRMMGYFGKMFEVFGDIIDERLEWRKQQSDGDSPAGTTNDVLDVLLNIIEDAEIEEKPNRTDVEHFLLDLFAAGSDTTSSTVEWAMTELLRKPETLERARSELHETIGPENLVQEADLPRLPYLQAVVKETFRLHPPVPLLLPRTAEKDAELCGFTVPAGAQIMVNAWAIGRDPGTWEDPESFLPERFLGSDVDVKGRSFELIPFGGGRRICPGLPLAIRMVHLMLGSLIHGFRWKVDDDGMGSPETAMDMDEKFGITLQKAKPLCAVPIRG
Km [9]: 157 ± 0.17 µM
kcat [9]: 0.13 s⁻¹
kcat/Km [9]: 810 M⁻¹ s⁻¹
Km [10]: 133 ± 0.41 µM
kcat [10]: 0.2 s⁻¹
kcat/Km [10]: 1500 M⁻¹ s⁻¹

B2: SaCYP76F39v1 (SaCYP76-G10) (Santalum album) (protein)
chain: MDFLSCILFVLFAWALVRALPTLSRGSKAASGRLPPGPVPWPVVGNLLKLGNKPHKSLAELAKSYGPIMCLKLGHMTTIVISTPTVAKEVLQKQDVAFSNRTTPDAVRAHGHDLYSMAWLPVSTRWRTLRKISNSHIFTSQRLDENHHLRRRKLDELLARVAESSLVGAVVDMGAVAFLTSLNLLSNTVFSKDLVEPGLGAVQETKEVVWGMMEEAGRPNLVDYFPVLRRLDPQGIRRRMTGYFGKMLEVFGDIIDERLEWRKQQSDGDSPAGTTNDVLDVLLNIIEDAEIEEKPNRTDVEHFLLDLFAAGSDTTSSTVEWAMTELLRKPETLERARSELHETIGPENLVQEADLPRLPYLQAVVKETFRLHPPVPLLLPRTAEKDAELCGFTVPAGAQIMVNAWAIGRDPGTWEDPESFLPERFLGSDVDVKGRSFELIPFGGGRRICPGLPLAIRMVHLMLGSLIHGFRWKVDDDGMGSPETAMDMDEKFGITLQKAKPLCAVPIRG
Km [11]: 34.82 ± 0.41 µM
kcat [11]: 1.17 s⁻¹
kcat/Km [11]: 33000 M⁻¹ s⁻¹
Km [12]: 25.92 ± 0.11 µM
kcat [12]: 1.12 s⁻¹
kcat/Km [12]: 43000 M⁻¹ s⁻¹

More lines, main results first:

Hydroxylation by CYP76-G10 in vitro [2]: catalyzed the hydroxylation
Molecule: CC(C)=CCC[C@](C)(O)C1CC=C(C)CC1 (stereo partly shown) [bisabolol]
Products of reaction with SaCYP76F38v1 [1]: one product

Hydroxylation by SaCYP76F39v1 [3]: catalyzed the hydroxylation
Molecule: C=C1C2CCC(C2)[C@@]1(C)CCC=C(C)C (stereo partly drawn) [epi-β-santalene]

Use as a substrate by SaCYP76F39v1 (in words) [4]: low activity
activity at 40 µM [4]: 9.4%
activity at 40 µM [5]: 0%
Molecule: CC(C)=CCCC(C)(O)C1CC=C(C)CC1 (stereo not drawn) [α-bisabolol]

activity at 40 µM [4]: 99.8%
activity at 40 µM [5]: 17.3%
Products formed with SaCYP76F39v1 [6]: (Z)- and (E)-α-santalol
Products formed with SaCYP76F37v1 [7]: only (E)-α-santalol
Hydroxylation by SaCYP76F39v1 [3]: catalyzed the hydroxylation
Molecule: CC(C)=CCC[C@]1(C)C2C[C@@H]3[C@H](C2)C31C [α-santalene]

Products formed with SaCYP76F39v1 [6]: (Z)- and (E)-α-trans-bergamotol
Products formed with SaCYP76F37v1 [7]: only (E)-α-trans-bergamotol
Hydroxylation by SaCYP76F39v1 [3]: catalyzed the hydroxylation
Hydroxylation/oxidation by SaCYP76F38v1 [8]: catalyzed the hydroxylation
Molecule: CC(C)=CCCC1(C)C2CC=C(C)C1C2 (stereo not drawn) [α-trans-bergamotene]

activity at 40 µM [4]: 100%
activity at 40 µM [5]: 17.7%
Hydroxylation by SaCYP76F39v1 [3]: catalyzed the hydroxylation
Molecule: C=C1[C@@H]2CC[C@@H](C2)[C@@]1(C)CCC=C(C)C [β-santalene]
